SMILES strings stand for the structures.

Test [1] addresses C-X-C chemokine receptor type 4 (Homo sapiens, UniProt P61073). Nature of the test: Displacement of [125I]SDF-1alpha from CXCR4 (unknown origin) expressed in HEK293 cells after 1 hr by scintillation counting method. The format is cell-based.
Test [2] has as its target Atypical chemokine receptor 3 (Homo sapiens, UniProt P25106). Nature of the test: Displacement of [125I]SDF-1alpha from ACKR3 (unknown origin) expressed in CHO cells after 1 hr by scintillation counting method. It counts as cell-based.

Sequence of C-X-C chemokine receptor type 4 (P61073 whole entry): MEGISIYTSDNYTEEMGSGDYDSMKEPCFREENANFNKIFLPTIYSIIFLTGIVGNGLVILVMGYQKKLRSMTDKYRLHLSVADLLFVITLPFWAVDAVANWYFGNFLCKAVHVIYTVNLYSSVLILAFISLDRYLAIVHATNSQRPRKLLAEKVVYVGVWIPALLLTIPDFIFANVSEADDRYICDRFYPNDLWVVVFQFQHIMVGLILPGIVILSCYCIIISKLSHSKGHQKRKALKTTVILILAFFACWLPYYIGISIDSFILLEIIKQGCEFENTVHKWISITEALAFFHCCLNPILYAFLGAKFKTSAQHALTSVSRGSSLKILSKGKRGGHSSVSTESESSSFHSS
Sequence of Atypical chemokine receptor 3 (P25106 whole entry): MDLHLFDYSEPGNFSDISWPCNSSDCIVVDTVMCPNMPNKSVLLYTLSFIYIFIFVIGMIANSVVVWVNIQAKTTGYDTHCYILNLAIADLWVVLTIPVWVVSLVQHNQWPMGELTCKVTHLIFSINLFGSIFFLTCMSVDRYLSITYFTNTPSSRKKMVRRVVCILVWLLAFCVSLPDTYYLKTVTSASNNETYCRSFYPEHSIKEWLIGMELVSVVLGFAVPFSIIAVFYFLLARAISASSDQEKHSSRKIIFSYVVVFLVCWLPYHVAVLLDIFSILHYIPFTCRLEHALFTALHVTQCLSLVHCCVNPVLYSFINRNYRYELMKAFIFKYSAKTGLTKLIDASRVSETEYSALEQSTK

As to `CN1C(=O)[C@@H]2CCCN2C(=O)[C@@H](Cc2ccc(O)cc2)NC(=O)[C@@H]2CCCN2C(=O)[C@H](Cc2ccc3ccccc3c2)NC(=O)[C@@H]1CCCNC(=N)N`, the results for the 50% inhibitory concentration (IC50) in test [1] and in test [2] were > 30 µM and 2 to 24 µM, respectively.
For the compound `CN1C(=O)[C@H](CCCNC(=N)N)NC(=O)[C@@H](Cc2ccc(O)cc2)NC(=O)[C@@H]2CCCN2C(=O)[C@H](Cc2ccc3ccccc3c2)NC(=O)[C@@H]1CCCNC(N)=O`, the IC50 was > 30 µM in test [1] and 13 µM in test [2].
The matching figures for `CN1C(=O)[C@H](CCCNC(=N)N)NC(=O)[C@@H](Cc2ccc(O)cc2)NC(=O)[C@@H]2C[C@@H]3CCCC[C@@H]3N2C(=O)[C@H](Cc2ccc3ccccc3c2)NC(=O)[C@@H]1CCCNC(N)=O`: > 30 µM and 0.35 µM.
With `CC(C)C[C@@H]1NC(=O)[C@@H](Cc2ccc(O)cc2)NC(=O)[C@@H]2CCCN2C(=O)[C@H](Cc2ccc3ccccc3c2)NC(=O)[C@H](CCCNC(=N)N)N(C)C1=O`, the half-maximal inhibitory concentration (IC50) in test [1] was > 30 µM; in test [2] it was 2 to 24 µM.
In the case of `CN1C(=O)[C@H](CCCNC(=N)N)NC(=O)[C@@H](Cc2c[nH]c3ccccc23)NC(=O)[C@@H]2CCCN2C(=O)[C@H](Cc2ccc3ccccc3c2)NC(=O)[C@@H]1CCCNC(N)=O`, the IC50 in test [1] was > 30 µM; in test [2], 3.2 µM.
The matching figures for `CN1C(=O)[C@@H](CS)NC(=O)[C@@H](Cc2ccc(O)cc2)NC(=O)[C@@H]2CCCN2C(=O)[C@H](Cc2ccc3ccccc3c2)NC(=O)[C@@H]1CCCNC(=N)N`: > 30 µM and 0.25 µM.
The matching figures for `CN1C(=O)[C@H](CCCNC(=N)N)NC(=O)[C@@H](Cc2ccc(O)cc2)NC(=O)[C@H](Cc2ccc3ccccc3c2)N(C)C(=O)[C@H](Cc2ccc3ccccc3c2)NC(=O)[C@@H]1CCCNC(N)=O`: > 30 µM and 2.6 µM.
In the same order, the values of `CN1C(=O)[C@H](CCCNC(=N)N)NC(=O)[C@@H](Cc2cccc(F)c2)NC(=O)[C@@H]2CCCN2C(=O)[C@H](Cc2ccc3ccccc3c2)NC(=O)[C@@H]1CCCNC(N)=O` are > 30 µM and 1.3 µM.
Regarding `CN1C(=O)[C@H](CCCNC(=N)N)NC(=O)[C@@H](Cc2ccc(O)cc2)NC(=O)[C@H](Cc2ccccc2)N(C)C(=O)[C@H](Cc2ccc3ccccc3c2)NC(=O)[C@@H]1CCCNC(N)=O`, the figures for the IC50 in test [1] and in test [2] were > 30 µM and 0.6 µM, respectively.
In the same order, the values of `CN1C(=O)[C@H](CCCNC(=N)N)NC(=O)[C@@H](Cc2ccc(O)cc2)NC(=O)[C@@H]2Cc3[nH]c4ccccc4c3CN2C(=O)[C@H](Cc2ccc3ccccc3c2)NC(=O)[C@@H]1CCCNC(N)=O` are > 30 µM and 2.1 µM.
Regarding `C[C@@H](O)[C@@H]1NC(=O)[C@@H](Cc2ccc(O)cc2)NC(=O)[C@@H]2CCCN2C(=O)[C@H](Cc2ccc3ccccc3c2)NC(=O)[C@H](CCCNC(=N)N)N(C)C1=O`, the IC50 is > 30 µM in test [1] and 2 to 24 µM in test [2].
In the same order, the values of `CN1C(=O)[C@H](CCCNC(=N)N)NC(=O)[C@@H](Cc2ccc(O)cc2)NC(=O)[C@H](Cc2ccc(O)cc2)N(C)C(=O)[C@H](Cc2ccc3ccccc3c2)NC(=O)[C@@H]1CCCNC(N)=O` are > 30 µM and 1.8 µM.
The matching figures for `CN1C(=O)[C@H](Cc2ccc3ccccc3c2)NC(=O)[C@H](CCCNC(N)=O)N(C)C(=O)[C@H](CCCNC(=N)N)NC(=O)[C@@H](Cc2ccc(O)cc2)NC(=O)[C@H]1CS`: 21 µM and 4.6 µM.
The matching figures for `CN1C(=O)[C@H](CCCNC(N)=O)NC(=O)[C@@H](Cc2ccc(O)cc2)NC(=O)[C@@H]2CCCN2C(=O)[C@H](Cc2ccc3ccccc3c2)NC(=O)[C@@H]1CCCNC(=N)N`: > 30 µM and 3.6 µM.
Consider `CSCC[C@H]1C(=O)N[C@H](Cc2ccc(O)cc2)C(=O)N[C@@H](CCCNC(=N)N)C(=O)N(C)[C@@H](CCCNC(N)=O)C(=O)N[C@@H](Cc2ccc3ccccc3c2)C(=O)N1C`, for which the IC50 in test [1] is > 30 µM; in test [2] it was 1.8 µM.
The matching figures for `CN1C(=O)[C@H](CCCCN)NC(=O)[C@@H](Cc2ccc(O)cc2)NC(=O)[C@@H]2CCCN2C(=O)[C@H](Cc2ccc3ccccc3c2)NC(=O)[C@@H]1CCCNC(=N)N`: > 30 µM and 2 to 24 µM.
In the same order, the values of `CN1C(=O)[C@H](Cc2c[nH]c3ccccc23)NC(=O)[C@@H](Cc2ccc(O)cc2)NC(=O)[C@@H]2CCCN2C(=O)[C@H](Cc2ccc3ccccc3c2)NC(=O)[C@@H]1CCCNC(=N)N` are > 30 µM and 2 to 24 µM.
For `CC[C@H](C)[C@@H]1NC(=O)[C@@H](Cc2ccc(O)cc2)NC(=O)[C@@H]2CCCN2C(=O)[C@H](Cc2ccc3ccccc3c2)NC(=O)[C@H](CCCNC(=N)N)N(C)C1=O`, the values for the 50% inhibitory concentration (IC50) in test [1] and in test [2] were > 30 µM and 2 to 24 µM, respectively.
`CSCC[C@@H]1NC(=O)[C@@H](Cc2ccc(O)cc2)NC(=O)[C@@H]2CCCN2C(=O)[C@H](Cc2ccc3ccccc3c2)NC(=O)[C@H](CCCNC(=N)N)N(C)C1=O`: the half-inhibitory concentration (IC50) in test [1] is > 30 µM; in test [2], 2 to 24 µM.
In the same order, the values of `CN1C(=O)[C@H](CCCNC(=N)N)NC(=O)[C@@H](CCc2ccccc2)NC(=O)[C@@H]2CCCN2C(=O)[C@H](Cc2ccc3ccccc3c2)NC(=O)[C@@H]1CCCNC(N)=O` are > 30 µM and 5 µM.
The matching figures for `CN1C(=O)[C@H](CCCNC(=N)N)NC(=O)[C@@H](Cc2ccc(O)cc2)NC(=O)[C@@H]2CCCN2C(=O)[C@H](Cc2ccc3ccccc3c2)NC(=O)[C@@H]1CCNC(=N)N`: > 30 µM and 1.5 µM.
The matching figures for `CN1C(=O)[C@H](Cc2ccccc2)NC(=O)[C@@H](Cc2ccc(O)cc2)NC(=O)[C@@H]2CCCN2C(=O)[C@H](Cc2ccc3ccccc3c2)NC(=O)[C@@H]1CCCNC(=N)N`: > 30 µM and 2 to 24 µM.
With `CN1C(=O)[C@H](Cc2ccc(O)cc2)NC(=O)[C@@H](Cc2ccc(O)cc2)NC(=O)[C@@H]2CCCN2C(=O)[C@H](Cc2ccc3ccccc3c2)NC(=O)[C@@H]1CCCNC(=N)N`, the IC50 is > 30 µM in test [1] and 2 to 24 µM in test [2].
The matching figures for `CN1C(=O)[C@H](CCNC(=N)N)NC(=O)[C@@H](Cc2ccc(O)cc2)NC(=O)[C@@H]2CCCN2C(=O)[C@H](Cc2ccc3ccccc3c2)NC(=O)[C@@H]1CCCNC(=N)N`: > 30 µM and 2.6 µM.
In the same order, the values of `CN1C(=O)[C@H](Cc2cnc[nH]2)NC(=O)[C@@H](Cc2ccc(O)cc2)NC(=O)[C@@H]2CCCN2C(=O)[C@H](Cc2ccc3ccccc3c2)NC(=O)[C@@H]1CCCNC(=N)N` are > 30 µM and 2 to 24 µM.
In the same order, the values of `CN1C(=O)[C@H](CCCNC(=N)N)NC(=O)[C@@H](Cc2ccccc2)NC(=O)[C@@H]2CCCN2C(=O)[C@H](Cc2ccc3ccccc3c2)NC(=O)[C@@H]1CCCNC(N)=O` are > 30 µM and 1.1 µM.
For `CC(C)[C@H]1C(=O)N[C@H](Cc2ccc(O)cc2)C(=O)N[C@@H](CCCNC(=N)N)C(=O)N(C)[C@@H](CCCNC(N)=O)C(=O)N[C@@H](Cc2ccc3ccccc3c2)C(=O)N1C`, the half-inhibitory concentration (IC50) was > 30 µM in test [1] and 4.9 µM in test [2].
For the compound `CN1C(=O)[C@H](CCCNC(=N)N)NC(=O)[C@@H](Cc2ccc([N+](=O)[O-])cc2)NC(=O)[C@@H]2CCCN2C(=O)[C@H](Cc2ccc3ccccc3c2)NC(=O)[C@@H]1CCCNC(N)=O`, the 50% inhibitory concentration (IC50) in test [1] was > 30 µM; in test [2], 2 µM.

(Values after ChEMBL document CHEMBL4043305, “Structure-Activity Relationship Study of Cyclic Pentapeptide Ligands for Atypical Chemokine Receptor 3 (ACKR3)” (J Med Chem, 2018).)
